# According to US7060790B1, “Peptides and nucleic acids derived from Eisenia foetida and the use thereof” (Vlaams Interuniversitair Instituut voor Biotechnologie VZW, priority 1997, dated 2006):
# Key:
# [1] = system: trypanolytic activity (T. cruzi) of CF; experiment: Inhibition of the trypanolytic activity (T. cruzi) of CF by antibodies and carbohydrates; assay type: cell-based
# Description: (§1) Purified parasites were resuspended at 4×10^6/ml PSG (PBS, consisting of 2.13 g NaCl, 8.45 g Na2HPO4 and 0.43 g NaH2PO4 per liter, supplemented with 1% glucose). […] of suspension were mixed with […] of different concentrations of CF, CCF-1 or TNF-α in 96-well culture plate. Quantification of the trypanolysis was based on the determination of parasite viability using Ethidium homodimer (EthD-1, Molecular Probes). EthD-1 is excluded by intact plasma membrane of live parasites. However, it enters the cells with damaged membrane and undergoes enhancement of fluorescence on binding nucleic acids, thereby producing a bright red fluorescence in dead cells. Briefly, after 4.5 hrs incubation at 30° C., […] of […] EthD-1 was added to the wells. The mean fluorescence intensity of triplicate cultures (±SD) was recorded 30 min later in a cytofluorimeter (Cytofluor II, PerSeptive Biosystems) using excitation/emission filters at 530±25/645±40 nm. A set of control was included in each experiments: (A) a parasite-free control to account for possible background fluorescence (B) a control of 100% lysis, prepared by treating the parasites with […] 2% saponin for about 10 min before adding EthD-1 (C) a control in which the trypanolytic component was replaced by PSG was considered as 0% lysis. (B) and (C) were used to build a standard curve and the % lysis in test samples was estimated by linear regression. In some assays parasite lysis was assessed by light microscopy counting the remaining parasites. Background lysis, i.e. lysis of trypanosomes within 5 hrs incubation at 30° C. in absence of lytic molecules, never exceeded 5–10%.
# (§2) For inhibition experiments CCF-1 or TNF-α were pre-incubated 1 hr at 30° C. with 10 […] of antibodies (anti-CCF1, anti-TIP or irrelevant mAb) or sugars (chitobiose, cellobiose, Sigma). All experiments were repeated at least 3 times.
# CCF-1 [2] = experiment: Inhibition of CCF-1 mediated trypanolysis (T. brucei) by antibodies and carbohydrates; assay type: cell-based, Eisenia foetida; settings: for CCF-1 mediated trypanolysis % Inhibition / CCF-1 mediated trypanolysis % Lysis: inhibitor 10 μg/ml, CCF-1 4 μg/ml
# Description: as §1, §2
# TNF-α = biological target: T1, TNF-α (Mus musculus, UniProt P06804); experiment: Inhibition of TNF-α mediated trypanolysis (T. brucei) by antibodies and carbohydrates; assay type: cell-based; settings: inhibitor 10 μg/ml, TNF-α 1.000 U/ml
# T1 sequence (P06804 80-235 limits assumed): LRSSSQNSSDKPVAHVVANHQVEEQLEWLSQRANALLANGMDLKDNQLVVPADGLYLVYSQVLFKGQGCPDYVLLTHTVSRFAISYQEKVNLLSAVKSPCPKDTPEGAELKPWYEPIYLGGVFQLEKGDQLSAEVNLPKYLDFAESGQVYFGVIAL
# Description: as §1, §2
# CCF-1 [3] = experiment: Inhibition of the cytolytic activity of CCF-1 (L929) by antibodies and carbohydrates; assay type: cell-based, Eisenia foetida
# Description: To test whether the cytolytic activity of CCF-1 is mediated by a similar or a different domain as that one utilized for the trypanolytic activity, CCF-1 was preincubated with N,N′-diacetylchitobiose or anti-TNF/TIP antibodies and tested in the L-929 lysis assay (21). […] This is in sharp contrast to the cytolytic activity of TNF-α that is not influenced by anti-TNF/TIP antibodies nor by N,N′-diacetylchitobiose.
# [4] = system: Trypanosoma brucei AnTat 1.1E; experiment: Trypanolytic assay on T. brucei; assay type: cell-based
# Description: Pleiomorphic and monomorphic Trypanosoma brucei AnTat 1.1E clone were provided by Dr N. Van Meirvenne (Institute of Tropical Medicine, Antwerp, Belgium).
# as §1
# anti-CCF-1 mAb 12C9 = experiment: Dot spot assay of tryptic peptides with anti-CCF-1 mAb; assay type: binding
# Description: The separated peptides obtained from HPLC purification of the tryptic digest of CCF-1 were analyzed for reactivity with the anti-CCF-1 mAb via a dot spot assay. […] The obtained sequence is shown in SEQ ID NO:1.
# T. cruzi = experiment: Trypanolytic activity on T. cruzi; assay type: cell-based; settings: trypomastigote versus epimastigote forms
# Description: as §1, with “(B) and (C) were used to build a standard curve and the % lysis in test samples was estimated by linear regression.” left out, “Background lysis, i.e. lysis of trypanosomes within 5 hrs incubation at 30° C. in absence of lytic molecules, never exceeded 5–10%.” left out
# [5] = inhibitor 10 μg/ml, CF final dilution 1:4.000
# [6] = Experiment 1, inhibitor 10 μg/ml, CCF-1 4 μg/ml, L929
compound,measurement,setting,value
O=C[C@H](O)[C@@H](O)[C@H](O[C@@H]1O[C@H](CO)[C@@H](O)[C@H](O)[C@H]1O)[C@H](O)CO [Cellobiose],inhibition at 10 µg/mL,"[1]; Trypanosoma cruzi, inhibitor 10 μg/ml, CF final dilution 1:4.000, read-out: CF-1 mediated trypanolysis % Inhibition",0%
same,CF-1 mediated trypanolysis % Lysis,[1]; [5],67%
same,inhibition of the trypanolytic activity of CCF-1 (in words),CCF-1 [2],does not influence the trypanolytic activity of CCF-1
same,CCF-1 mediated trypanolysis % Inhibition,CCF-1 [2],0%
same,CCF-1 mediated trypanolysis % Lysis,CCF-1 [2],49%
same,TNF-α mediated trypanolysis % Lysis,TNF-α,41%
same,inhibition at 10 µg/mL,TNF-α,0%
"CC(=O)N[C@H]1[C@H](O[C@H]2[C@H](O)[C@@H](NC(C)=O)C(O)O[C@@H]2CO)O[C@H](CO)[C@@H](O)[C@@H]1O (stereo partly shown) [N,N′-diacetylchitobiose]",inhibition of the interaction of CCF-1 with L-929 cells (in words),CCF-1 [3]; CCF-1 preincubated with inhibitor,completely inhibited
same,CCF-1 mediated cytolysis % Inhibition,CCF-1 [3]; [6],100%
same,CCF-1 mediated cytolysis % Lysis,CCF-1 [3]; [6],0%
same,inhibition of the T. cruzi lytic activity of CF (in words),[1],substantially decreased
same,CF-1 mediated trypanolysis % Inhibition,[1]; [5],70%
same,CF-1 mediated trypanolysis % Lysis,[1]; [5],19%
same,inhibition of the trypanolytic activity of CCF-1 (in words),CCF-1 [2],found to inhibit also the trypanolytic activity of CCF-1
same,CCF-1 mediated trypanolysis % Inhibition,CCF-1 [2],73%
same,CCF-1 mediated trypanolysis % Lysis,CCF-1 [2],3%
same,inhibition of the trypanolytic activity of rCCF-1 (in words),"CCF-1 [2]; rCCF-1, FIG. 3A, 3B",inhibits potently
same,TNF-α mediated trypanolysis % Inhibition,TNF-α,100%
same,TNF-α mediated trypanolysis % Lysis,TNF-α,0%
NH2-SGEIDIIETIGNR-COOH (chain 1 H-SGEIDIIETIGNR-OH; chain 2 H-SGEIDIIETIGNR-OH; listed as Eisenia foetida) [CCF-1/TIP],trypanolytic activity on T. brucei (in words),[4],trypanolytic in a time- and dose-dependent way
same,trypanolytic activity compared with the TNF/TIP peptide,[4]; FIG. 1,reproducibly more trypanolytic than the TNF/TIP peptide
same,reactivity with the anti-CCF-1 mAb 12C9 in dot spot assay,anti-CCF-1 mAb 12C9,weakly positive
TNF-α,"binding to chitobiose / binding capacity towards N,N′-diacetylchitobiose",Binding to chitobiose,bind to immobilized chitobiose
same,TNF-α mediated trypanolysis % Lysis,"[4]; TNF-α 1.000 U/ml, no inhibitor",41%
same,T. cruzi forms on which trypanolytic activity was recorded,T. cruzi,only be recorded on the trypomastigote but not the epimastigote forms
